We go through 1 compound from publication PMC6934184, “Selective DNA-PKcs inhibition extends the therapeutic index of localized radiotherapy and chemotherapy” (The Journal of Clinical Investigation, 2019).

Molecules are shown by their SMILES.

This assay deals with T1, FES (FPS) (Homo sapiens, UniProt P07332).
T1 construct: purchased Thermo Fisher Scientific (Life Technologies) SelectScreen
Briefly: SelectScreen Z'LYTE. Format: biochemical. The essentials: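 NU5455 was profiled across the SelectScreen Broad panel of kinase activity and binding assays. Z'LYTE reactions such as CSF1R ran at apparent Km ATP, while the Adapta CAMK1 assay used ATP listed as 10. Values are given as percent.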

T1 sequence (P07332 whole entry): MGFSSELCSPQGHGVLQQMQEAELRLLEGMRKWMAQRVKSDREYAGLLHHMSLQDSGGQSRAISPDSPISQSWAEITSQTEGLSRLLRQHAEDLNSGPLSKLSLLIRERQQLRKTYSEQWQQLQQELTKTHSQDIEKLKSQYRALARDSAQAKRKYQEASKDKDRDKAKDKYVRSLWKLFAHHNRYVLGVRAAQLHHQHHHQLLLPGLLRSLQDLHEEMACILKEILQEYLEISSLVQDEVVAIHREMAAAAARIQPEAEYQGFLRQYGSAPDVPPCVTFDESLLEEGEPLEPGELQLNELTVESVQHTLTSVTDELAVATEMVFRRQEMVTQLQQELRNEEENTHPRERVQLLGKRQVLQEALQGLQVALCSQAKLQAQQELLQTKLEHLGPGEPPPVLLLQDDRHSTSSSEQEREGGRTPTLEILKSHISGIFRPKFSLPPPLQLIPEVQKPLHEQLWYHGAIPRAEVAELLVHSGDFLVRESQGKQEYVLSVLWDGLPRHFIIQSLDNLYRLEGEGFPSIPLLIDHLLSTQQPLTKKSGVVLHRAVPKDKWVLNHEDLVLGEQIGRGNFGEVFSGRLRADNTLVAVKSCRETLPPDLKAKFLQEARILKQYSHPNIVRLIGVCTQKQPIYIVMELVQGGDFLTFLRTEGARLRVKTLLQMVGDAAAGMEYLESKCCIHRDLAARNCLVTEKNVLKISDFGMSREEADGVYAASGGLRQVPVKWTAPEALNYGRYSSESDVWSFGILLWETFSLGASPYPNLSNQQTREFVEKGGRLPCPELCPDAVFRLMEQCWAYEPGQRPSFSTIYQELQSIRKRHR

Take `CN(C(=O)CN1CCOCC1)c1ccc2sc3c(-c4cccc5c(=O)cc(N6CC7CCC(C6)O7)oc45)cccc3c2c1` [NU5455]: at 1 µM the inhibition was 10.4%.
